Measured values as given in patent US10774047B2 (THE TRUSTEES OF THE UNIVERSITY OF PENNSYLVANIA, priority 2015, dated 2020).
Entries after “also recorded” stand apart in the source; their conditions may differ.

Tests used:
A375P (melanoma) cells = assay: MTT anti-proliferative assay (72 hr) in A375P cells; type: cell-based; conditions: for anti-proliferative potency / activity (comparative): A375P and PANC1 cells, FIGS. 1C and 1D
Protocol: (§1) (A) Schematic of dimeric antimalarials (B) A375P cells were plated in a 384-well highthroughput format and treated with the quinacrine-, mefloquine- and primaquine-based compounds shown (72 hr, 1 nM-30 μM). Viability was standardized to vehicle (water) treated controls and shown are Log IC50 values calculated using GraphPad Prism. Alamar blue. (C) A375P cells were treated with the DQ compound library (72 hr, 1 nM-30 μM) MTT. (D) PANC1 cells were treated identically to (C). (E) PANC1 cells were treated with the DQ compound library as well as Lys05, Spautin and SBI-0206965 (72 hr, 3 μM). Apoptosis was assessed by Annexin-V/flow cytometry.
For MTT assays, cells were plated in 96-well plates (2,000 cells/well), allowed to adhere overnight, and subsequently treated in triplicate for 72 hours. MTT reagent (Roche) was applied, cells were solubilized and absorbance was read at 570 nm, with background subtraction at 690 nm. The clonogenic assay was performed as previously described. Briefly, cells were suspended in appropriate culture media, and plated in 6-well plates (2×10^3 cells/well). Medium was changed and drug treatment refreshed every 3-4 days for 2 weeks. Cells were subsequently stained with crystal violet and quantified.
In an attempt to improve in vivo activity, we designed a series of second-generation analogs of Lys05 to test the effect of changing each of the separate parts of the Lys05 structure on lysosomal inhibition and cytotoxicity. Replacement of the linker of Lys05 with the commercially available linker spermidine and exchanging the aromatic rings of Lys05 from CQ to the antimalarial-based heterocyclic systems primaquine (PQ), mefloquine (MQ) and quinacrine (QC) was interrogated (FIG. 1A). The dimeric antimalarial compounds were named DC (dimeric chloroquine), DM (dimeric mefloquine), DP (dimeric primaquine) and DQ (dimeric quinacrine). The dimeric compounds were named followed by three digits (m, n, r) where m signifies the number of carbons to the left of the central nitrogen, the n signifies the number of carbons on the right of the central nitrogen and the r signifies if the central nitrogen is methylated (1) or not (0). […] We generated a focused library of DQs with triamine linkers of increasing length ranging from lengths of two to eleven carbons between the QC heterocycle and the central nitrogen of the triamine linker. Both secondary and tertiary amine derivatives of each analog were generated to determine the role of central nitrogen alkylation on biological activity. A375P and PANC1 (pancreatic cancer) cells were treated with CQ, Lys05, QC and the DQ library, establishing the increase in anti-proliferative potency of DQs relative to monomeric QC. […] We observed a clear relationship between linker length and potency amongst the DQs. […] When tested in parallel to the DQs. […] PANC1 cells were treated with the panel of DQs (3 uM) as well as Spautin-1 (3 μM) and SBI-0206965 (3 μM) for 24 hours.

451Lu (melanoma) cells = assay: Bafilomycin clamp experiment (autophagic flux); type: cell-based; conditions: 3 μM, with or without bafilomycin-A1, 24 hours
A375P cells [1] = assay: Galectin-3 punctae assay (lysosomal membrane permeabilization); type: cell-based; conditions: 6 hours (LLOMe 3 hr, 2 mM)
Protocol: (§2) FIG. 3: Central nitrogen methylation status dictates DNA damage versus lysosomal membrane permeability. […] Cells were imaged with fluorescent microscopy, phospho-H2AX+ cells were scored using ImageJ software analysis and quantified to the right. (B) A375P cells were treated identical to the conditions in (A), with the addition of the positive control LLoMe (3 hr, 2 mM). Cells were subsequently stained with galectin-3 and imaged with fluorescent microscopy. The formation of galectin-3 punctae, which signify lysosomal membrane permeabilization, are pointed out with yellow arrows.
When lysosomes are healthy, galectin-3 is uniformly dispersed throughout the cell. However, when the lysosome is damaged, galectin-3 rapidly localizes to the site of damaged lysosomes, appearing as punctae and marking individual leaky lysosomes.

A375P cells [2] = assay: phospho-H2AX immunofluorescence (DNA damage); type: cell-based; conditions: 6 hr, 3 μM
Protocol: as §2
The longer linked DQs can be separated into two classes based on central nitrogen substitution (secondary or tertiary amine)—those that localize to the nucleus and those that localize to the lysosome. We next sought to determine whether both classes of DQs cause DNA damage since quinacrine is known to intercalate DNA. […] Furthermore, the difference in DNA damage induced by unmethylated DQs versus the corresponding methylated DQs for each pair of compounds increase with increasing linker length.

[3] = system: 1205Lu melanoma xenografts; assay: 1205Lu melanoma xenograft model; type: in vivo, NSG mice; conditions: 8 mg/kg i.p., 2 days on / 2 days off
Protocol: FIG. 5: DQ661 has significant single-agent in vivo activity in melanoma xenograft model. […]. Mice were randomly split into 4 arms and treated with vehicle control (water, i.p.), quinacrine (8 mg/kg, i.p.), DQ660 (8 mg/kg, i.p.) or DQ661 (8 mg/kg, i.p.). Treatments were given as shown by the black arrows, following a regimen of 2 days on treatment followed by 2 days off treatment. (C) Representative electron micrographs from melanoma xenograft tumors harvested after 2 days of treatment according to (B). (D) Average tumor volumes for each treatment arm are shown. Each point represents the mean of N=8 mice per treatment arm and the error bars represent standard error (s.e.) (C) Representative EM for tumors treated in each arm. (E) A schematic for how mice were treated in (F). […]. Mice were randomly split into 3 arms and treated with water (i.p.), DQ661 (2 mg/kg, i.p.) or DQ661 (4 mg/kg, i.p.). Treatments were give as shown by the black arrows, following a regimen of 2 days on treatment followed by 2 days […]. Tumor volume is shown. Each point represents the mean of N=8 mice per treatment arm and the error bars represent s.e. (G) Average tumor growth rate for each treatment arm are shown. (H) Protein lysate was harvested from mouse tumors at the end of the experiment and immunoblotted for LC3B, phospho-4E-BP1 T37_T65, phospho-4E-BP1 S240_S244 and Actin. Quantification of proteins standardized to control mice levels are shown to the right.
Five to seven-week old NOD-scid gamma (NSG) mice (Jackson Laboratory) were used for xenograft studies with the 1205Lu melanoma cell line. Tumor generation, tumor measurement and tumor harvesting performed as previously described (ref). For the pancreatic cancer model, five to seven-week old C57BL/6 mice (Jackson Laboratory) and maintained under pathogen-free conditions. 2×10^6 G43 cells were subcutaneously injected with an equal volume of matrigel (BD) over the right flank […] and tumors became palpable after 5-6 days. Mice were enrolled on day 6 and given Gemcitabine (120 mg/kg, i.p.). DQ661 (4 mg/kg, i.p.) was given on days 7, 8, 12, 13, 17 and 18. Perpendicular tumor diameters were measured sing electronic calipers and volume was calculated leveraging the formula L×W^2×0.5, where L is the longest dimension and W is the perpendicular dimension. All animal experiments were performed in accordance to the protocols approved by the Institute of Animal Care and Use Committee of the University of Pennsylvania.
. After 1-2 weeks, tumors were palpable and mice were treated with vehicle control (water), quinacrine (8 mg/kg), DQ660 (8 mg/kg) or DQ661 (8 mg/kg) i.p (FIG. 5A). […]. Therefore another 1205Lu xenograft experiment was performed with mice treated with either vehicle control (water, n=6) or DQ661 (2 or 4 mg/kg, n=6) for a period of 14 days (FIG. 5e, 5F).

mTORC1 = assay: Immunoblot of mTORC1 signaling and LC3B, panel of lysosomal inhibitors; conditions: A375P cells; for 4E-BP1 phosphorylation: PES 10 μM, PET 10 μM, Bafilomycin A1 100 nM; for mTORC1 activity (Western blotting): DQ661 3 μM, Pepstatin A 10 μG/mL, Siramesine 8 μM
PANC1 cells = assay: Annexin V binding flow cytometry apoptosis assay; type: cell-based; conditions: 3 μM, 24 hours
Protocol: as §1
In an attempt to improve in vivo activity, we designed a series of second-generation analogs of Lys05 to test the effect of changing each of the separate parts of the Lys05 structure on lysosomal inhibition and cytotoxicity. Replacement of the linker of Lys05 with the commercially available linker spermidine and exchanging the aromatic rings of Lys05 from CQ to the antimalarial-based heterocyclic systems primaquine (PQ), mefloquine (MQ) and quinacrine (QC) was interrogated (FIG. 1A). The dimeric antimalarial compounds were named DC (dimeric chloroquine), DM (dimeric mefloquine), DP (dimeric primaquine) and DQ (dimeric quinacrine). […]

Molecule: COc1ccc2nc3cc(Cl)ccc3c(NCCN(C)CCNc3c4ccc(Cl)cc4nc4ccc(OC)cc34)c2c1 [DQ 221]
- anti-proliferative potency / activity (comparative) (A375P (melanoma) cells): same activity as monomeric QC; also recorded: potency was equal to monomeric quinacrine
- effect on autophagic flux (LC3II/LC3I ratio with vs without bafilomycin-A1) (451Lu (melanoma) cells): autophagy inhibitors
- galectin-3 staining pattern (A375P cells [1]): diffuse staining for galectin-3

Molecule: COc1ccc2nc3cc(Cl)ccc3c(NCCCNCCCNc3c4ccc(Cl)cc4nc4ccc(OC)cc34)c2c1 [DQ 330]
- anti-proliferative potency / activity (comparative) (A375P (melanoma) cells): significant increase in anti-proliferative potency

Molecule: COc1ccc2nc3cc(Cl)ccc3c(NCCCCNCCCNc3c4ccc(Cl)cc4nc4ccc(OC)cc34)c2c1 [DQ 340]
- IC50, anti-proliferative activity (A375P (melanoma) cells; A375P cells, FIG. 1B): low nanomolar

Molecule: COc1ccc2nc3cc(Cl)ccc3c(NCCCCN(C)CCCNc3c4ccc(Cl)cc4nc4ccc(OC)cc34)c2c1 [DQ 341]
- effect on autophagic flux (LC3II/LC3I ratio with vs without bafilomycin-A1) (451Lu (melanoma) cells): autophagy inhibitors

Molecule: COc1ccc2nc3cc(Cl)ccc3c(NCCCCN(C)CCCCNc3c4ccc(Cl)cc4nc4ccc(OC)cc34)c2c1 [DQ 441]
- effect on autophagic flux (LC3II/LC3I ratio with vs without bafilomycin-A1) (451Lu (melanoma) cells): autophagy inhibitors

Molecule: COc1ccc2nc3cc(Cl)ccc3c(NCCCCCNCCCCCNc3c4ccc(Cl)cc4nc4ccc(OC)cc34)c2c1 [DQ 550]
- DNA damage (phospho-H2AX, γ-H2AX) (A375P cells [2]): significantly greater levels of DNA damage relative to their methylated counterparts
- galectin-3 staining pattern (A375P cells [1]): diffuse staining for galectin-3

Molecule: COc1ccc2nc3cc(Cl)ccc3c(NCCCCCN(C)CCCCCNc3c4ccc(Cl)cc4nc4ccc(OC)cc34)c2c1 [DQ 551]
- effect on autophagic flux (LC3II/LC3I ratio with vs without bafilomycin-A1) (451Lu (melanoma) cells): autophagy inhibitors
- galectin-3 staining pattern (A375P cells [1]): punctate distribution of galectin-3

Molecule: COc1ccc2nc3cc(Cl)ccc3c(NCCCCCCNCCCCCCNc3c4ccc(Cl)cc4nc4ccc(OC)cc34)c2c1 [DQ 660]
- DNA damage (phospho-H2AX, γ-H2AX) (A375P cells [2]): significantly greater levels of DNA damage relative to their methylated counterparts
- galectin-3 staining pattern (A375P cells [1]): diffuse staining for galectin-3
- tumor growth [3]: modest but significant growth impairment of tumors

Molecule: COC(=O)[C@H](CC(C)C)NC(=O)[C@@H](N)CC(C)C [LLOMe, L-leucyl-L-leucine methyl ester, reference compound]
- galectin-3 staining pattern (A375P cells [1]): punctate distribution of galectin-3

Molecule: NS(=O)(=O)C#Cc1ccccc1 [PES]
- 4E-BP1 phosphorylation (mTORC1): hyperphosphorylation of 4E-BP1

Molecule: CNC(=O)c1ccccc1Oc1nc(Nc2cc(OC)c(OC)c(OC)c2)ncc1Br [SBI-0206965, reference compound]
- anti-proliferative potency / activity (comparative) (A375P (melanoma) cells): did not have significantly increased anti-cancer activity relative to monomeric chloroquine or monomeric quinacrine
- apoptosis (annexin V) (PANC1 cells): did not induce significant levels of apoptosis

Molecule: Fc1ccc(-n2cc(CCCCN3CCC4(CC3)OCc3ccccc34)c3ccccc32)cc1 [Siramesine]
- mTORC1 activity (Western blotting) (mTORC1): did not inhibit mTORC1 activity

Molecule: Fc1ccc(CNc2ncnc3ccc(F)cc23)cc1 [Spautin-1, reference compound]
- anti-proliferative potency / activity (comparative) (A375P (melanoma) cells): did not have significantly increased anti-cancer activity relative to monomeric chloroquine or monomeric quinacrine
- apoptosis (annexin V) (PANC1 cells): did not induce significant levels of apoptosis

Molecule: CCN(CC)CCCC(C)Nc1c2ccc(Cl)cc2nc2ccc(OC)cc12 (centres unmarked) [quinacrine, reference compound]
- effect on autophagic flux (LC3II/LC3I ratio with vs without bafilomycin-A1) (451Lu (melanoma) cells): induces autophagic flux
- galectin-3 staining pattern (A375P cells [1]): diffuse staining for galectin-3
- tumor growth [3]: no significant effect on tumor growth compared to vehicle control

Molecule: Bafilomycin
- 4E-BP1 phosphorylation (mTORC1): hyperphosphorylation of 4E-BP1

Molecule: Pepstatin A
- mTORC1 activity (Western blotting) (mTORC1): did not significantly affect mTORC1 activity
